Laboratory results reported in patent US20210392882A1, “METHODS AND COMPOSITIONS FOR IMPROVED INSECT REPELLENCY” (Board of Trustees of Michigan State University, priority 2020, published 2021).

What was measured:
Ae. aegypti mosquitoes = assay: Hand-in-cage spatial repellency assay; type: in vivo, Aedes aegypti
Text: The hand-in-cage assay employed was similar to the hand-in-glove assay described by Boyle et al. (bioRxiv, 060178 (2016)). The setup for the hand-in-cage assay includes a 30 cm×30 cm×30 cm mosquito cage (BioQuip, Rancho Dominguea, Calif.), with a mounted digital camera and a human hand in a modified glove with a screened window. The digital camera (e-con Systems Inc, San Jose, Calif., model: e-CAM51A) for video recording is mounted on the cage top and connected to a laptop computer. A nitrile rubber glove (Ansell Protective Products, Coshoton, Ohio, part number: 37-155) was cut on the back side of the glove to create a window (6 cm×5 cm) (FIG. 1A). A piece of magnetic frame (slightly larger than the dimension of the window) was glued onto the cut window which was used as a base for stacking more magnetic window frames (FIG. 1A; further explained below). One piece of test compound-treated polyester netting (Shason Textile Inc., part number: WS-B532-111, white; slightly larger than the dimension of the window) was placed on this fixed magnetic frame, which was ˜3.0 mm above the glove. The second piece of the netting was untreated and placed ˜6.0 mm above the treated net using a stack of four magnetic frames. The stacked magnetic frames were further secured with a binder clip. The stacking creates sufficient space between the treated net and the untreated net so that mosquitoes that land on the open window were not able to contact treated net, or to contact and pierce skin of a hand in the glove. The hand makes no contact with the treated net.
The assay was run in a room with humidity between around 50% and temperature between 27° C. to 30° C. Twenty-four hours before an assay, four to nine days-old females (about 40, mated, non-blood fed) were transferred into a mosquito cage. The cage was kept in an incubator where mosquitoes were provided only with water in a cotton ball placed on the top of the cage. Immediately before the assay, one researcher treated pieces of netting with 500 μl test compound dissolved in acetone in a glass Petri dish in an adjacent room. Acetone served a control. After letting acetone evaporate (˜7 min), the researcher assembled and put on a modified glove. In the meantime, a second researcher or a lab assistant transferred the prepared cage from the incubator to a bench in the assay room. Both personnel avoided use of any hand lotions and cosmetic products before an assay and wore white lab coats and gloves during the assay. The hand with the modified glove was introduced into the cage to initiate the assay. Mosquitoes landing on the test window was recorded by the digital camera for five minutes. The number of mosquitoes landing during the second to fifth minutes was counted and recorded. For each cage, solvent (acetone) control was tested first and then followed with a treatment. Data from any cage that gave a low landing number in a control trial were discarded. The time interval of assays between control and treatment was at least 1.5 hours, allowing the mosquitoes to fully recover and residual vapors from experiments to be ventilated out of the room. Percentage repellency was determined for each cage using the following equation:
Percentage repellency=[1−(cumulative number of mosquitoes landed on the window of treatment/cumulative number of mosquitoes landed on the window of solvent treatment)]×100).
The spatial repellency of pyrethrum was examined using a hand-in-cage assay (Ogoma et al. PLoS neglected tropical diseases 11, e0005455 (2017)). In this behavioral assay, mosquitoes were attracted to a human hand in a modified glove (FIG. 1A) with a screened window on the back of the glove. The mosquitoes landed on a piece of control mesh secured on the top of the window. Between the control mesh and the hand is another mesh treated with a test compound, with which mosquitoes cannot make direct contact (FIG. 1A).

[1] = tested on: sst-1 sensilla (sst-1A and sst-1B neurons); assay: Single sensillum recording (SSR) of antennal sst-1 sensilla; type: cell-based, Aedes aegypti; conditions: wild-type ROCK; pyrethrum at 10^−2
Protocol: Single sensilla recording was conducted as described in Liu et al. J Insect Physiol 59, 1169-1177 (2013). Female mosquitoes 4 days after eclosion were anaesthetized (2-3 min on ice) and mounted on a microscope slide (76×26 mm). An antenna was fixed using a double-sided tape to a cover slip resting on a small ball of dental wax to facilitate manipulation. The cover slip was placed at an appropriate angle to the mosquito head. Once mounted, the specimen was placed under a microscope (Nikon SMA645, Japan) and the antenna viewed at a high magnification (1000×). Two tungsten microelectrodes were sharpened in 10% KNO2 at 2-10 V. The reference electrode, which was connected to ground, was inserted into the compound eye of the mosquito and the other was connected to the preamplifier (10×, Syntech, Kirchzarten, Germany) and inserted into the shaft of an olfactory sensillum to complete the electrical circuit to extracellularly record olfactory receptor neuron potentials (Den Otter et al., Journal of Insect Physiology 26, 465-472 (1980)). Controlled manipulation of the electrodes was performed using a micromanipulator (Burleigh PCS-6000, CA). The preamplifier was connected to an analog-to-digital signal converter (IDAC-4, Syntech, Germany), which in turn was connected to a computer for signal recording and visualization. The activity of co-located olfactory receptor neurons in each sensillum was assessed based on the differences in spike amplitude. The large spike amplitude was designated as cell A and the olfactory receptor neuron with the small spike amplitude was designated cell B (Ghaninia et al. Eur J Neurosci 26, 1611-1623 (2007)). Signals were recorded for 10 seconds starting 1 second before stimulation, and the action potentials were counted off-line over a 500-ms period before and after stimulation. The spontaneous firing rates observed in the preceding 500 milliseconds (ms) were subtracted from the total spike rates observed during the 500-ms stimulation, and counts were recorded in units of spikes/second.
Eighteen compounds besides pyrethrum from different chemical classes were selected for functional classification of olfactory sensilla with various morphological shapes (Extended Data FIG. 2). Each compound was diluted in dimethyl sulfoxide (DMSO) to a stock solution with a concentration of 100 μg/μl. Subsequently, a series of 10-fold dilutions were made from each of the stock solutions for each compound tested. For each dilution, a 10 μl portion was dispersed onto a filter paper strip (4×10 mm), which was then inserted into a Pasteur pipette to create the stimulus cartridge. A sample containing the solvent alone served as control. The airflow across the antennae was maintained constant at a 20 ml/second throughout the experiment. Purified and humidified air was delivered to the preparation through a glass tube (10-mm inner diameter) perforated by a small hole 10 cm away from the end of the tube, into which the tip of the Pasteur pipette could be inserted. The stimulus was delivered to the sensilla by inserting the tip of the stimulus cartridge into this hole and diverting a portion of the air stream (0.5 l/min) to flow through the stimulus cartridge for 500 ms using a stimulus controller (Syntech, Germany). The distance between the end of the glass tube and the antennae was ≤1 cm. The number of spikes/second was obtained by averaging the results for each sensillum/compound combination.
To identify which mosquito olfactory receptor neuron(s) responds to pyrethrum, single sensillum recordings (SSR) were performed of Ae. aegypti antennal olfactory sensilla in response to a panel of odorants (FIG. 2C-2L), most of which are plant-derived mosquito repellents, such as pyrethrum, (±)-citronellal, geranyl acetate and (−)-borneol. Three responsive sst sensilla were identified, sst1-3, and six responsive sbt sensilla, sbt1-6, based on their response profiles to the odorants in the panel (FIG. 2B, 2D-2L).

SMILES: CC1(C)C2CCC1(C)C(O)C2 (single isomer, unassigned; (-)) [(−)-borneol]
- repellency, Orlando vs orco−/− (Ae. aegypti mosquitoes; 10^−2 dilution, FIG. 4I): Orco-mediated
- effect of (E)-β-farnesene on repellency of the compound (Ae. aegypti mosquitoes; EBF 4 ppm, P-I 1000 ppm, P-II 1000 ppm, (−)-borneol 100 ppm, ROCK, FIG. 4D): No enhancement
- response of sst-1A neuron [1]: activates
